Test results reported in ChEMBL document CHEMBL1201862, “PubChem BioAssay data set” (2004).
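Dose response: 5 concentrations. Exposure: 48 h. Format: 96-well plates. Endpoint: linear interpolation; highest concentration if not reached. Abbreviation: GI50, concentration required for 50% inhibition of growth.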 Activity calls are given as the source filed them. No stated cut-off is given here; in the data, active = GI50 up to about 1.1 µM and inactive = higher.

Key:
Assay in all cases: inhibition of tumour cell growth, NCI panel, 48 h
RPMI-8226 = tested on: RPMI-8226
MOLT-4 = tested on: MOLT-4
NCI-H23 = tested on: NCI-H23
OVCAR-3 = tested on: OVCAR-3
CAKI-1 = tested on: CAKI-1
SK-OV-3 = tested on: SK-OV-3
T47D = tested on: T47D
SF-268 = tested on: SF-268
OVCAR-4 = tested on: OVCAR-4
HOP-92 = tested on: HOP-92
TK-10 = tested on: TK-10
UACC-257 = tested on: UACC-257
M14 = tested on: M14
SW-620 = tested on: SW-620
HOP-62 = tested on: HOP-62
SNB-75 = tested on: SNB-75
HCT-15 = tested on: HCT-15
SF-295 = tested on: SF-295
UO-31 = tested on: UO-31
BT-549 = tested on: BT-549
ACHN = tested on: ACHN
IGROV-1 = tested on: IGROV-1
KM12 = tested on: KM12
NCI-H522 = tested on: NCI-H522
MDA-N = tested on: MDA-N
SK-MEL-28 = tested on: SK-MEL-28
LOX IMVI = tested on: LOX IMVI
NCI-H460 = tested on: NCI-H460
MCF7 = tested on: MCF7
SNB-19 = tested on: SNB-19
MDA-MB-231 = tested on: MDA-MB-231
NCI/ADR-RES = tested on: NCI/ADR-RES
EKVX = tested on: EKVX
RXF 393 = tested on: RXF 393
K562 = tested on: K562
786-0 = tested on: 786-0
A549 = tested on: A549
SN12C = tested on: SN12C
HCT-116 = tested on: HCT-116
PC-3 = tested on: PC-3
A498 = tested on: A498
OVCAR-5 = tested on: OVCAR-5
Malme-3M = tested on: Malme-3M
SK-MEL-2 = tested on: SK-MEL-2
DU-145 = tested on: DU-145
COLO 205 = tested on: COLO 205
OVCAR-8 = tested on: OVCAR-8
U-251 = tested on: U-251
SR = tested on: SR
MDA-MB-435 = tested on: MDA-MB-435
NCI-H226 = tested on: NCI-H226
SF-539 = tested on: SF-539
CCRF-CEM = tested on: CCRF-CEM
HL-60 = tested on: HL-60
UACC-62 = tested on: UACC-62
HT-29 = tested on: HT-29
HCC 2998 = tested on: HCC 2998
SK-MEL-5 = tested on: SK-MEL-5

In the case of `COc1ccccc1-c1nc[nH]c1-c1ccccc1OC`, the GI50 (RPMI-8226) is reported as 29.3 µM (inactive), the GI50 (MOLT-4) is reported as 29.2 µM (inactive) and the GI50 (NCI-H23) is reported as 27.4 µM (inactive). The GI50 (OVCAR-3) was 24.2 µM (inactive), the GI50 (CAKI-1) was 31 µM (inactive) and the GI50 (SK-OV-3) was 36.1 µM (inactive). For the same compound, the GI50 (T47D) was 37.6 µM (inactive), the GI50 (SF-268) was 14.4 µM (inactive) and the GI50 (OVCAR-4) was 25.8 µM (inactive). For the same compound, the GI50 (HOP-92) was 17.3 µM (inactive), the GI50 (TK-10) was 22.5 µM (inactive) and the GI50 (UACC-257) was 25.3 µM (inactive). The GI50 (M14) was 19.7 µM (inactive), the GI50 (SW-620) was 40.3 µM (inactive) and the GI50 (HOP-62) was 40.8 µM (inactive). For the same compound, the GI50 (SNB-75) was 14.6 µM (inactive), the GI50 (HCT-15) was 35 µM and the GI50 (SF-295) was 26 µM (inactive). The GI50 (UO-31) was 45.1 µM (inactive), the GI50 (BT-549) was 33.4 µM (inactive) and the GI50 (ACHN) was 35.9 µM (inactive). The GI50 (IGROV-1) was 29 µM (inactive), the GI50 (KM12) was 2.45 µM (inactive) and the GI50 (NCI-H522) was 13.2 µM (inactive). For the same compound, the GI50 (MDA-N) was 16.1 µM (inactive), the GI50 (SK-MEL-28) was 33.7 µM (inactive) and the GI50 (LOX IMVI) was 16.8 µM (inactive). The GI50 (NCI-H460) was 24.3 µM (inactive), the GI50 (MCF7) was 24.8 µM (inactive) and the GI50 (SNB-19) was 35.2 µM (inactive). The GI50 (MDA-MB-231) was 21.7 µM (inactive), the GI50 (NCI/ADR-RES) was 22 µM (inactive) and the GI50 (EKVX) was 25.6 µM (inactive). For the same compound, the GI50 (RXF 393) was 24.5 µM (inactive), the GI50 (K562) was 19.9 µM (inactive) and the GI50 (786-0) was 35.5 µM (inactive). For the same compound, the GI50 (A549) was 22.6 µM (inactive), the GI50 (SN12C) was 38 µM (inactive) and the GI50 (HCT-116) was 31.8 µM (inactive). For the same compound, the GI50 (PC-3) was 18.6 µM (inactive), the GI50 (A498) was 27.7 µM (inactive) and the GI50 (OVCAR-5) was 37.9 µM (inactive). The GI50 (Malme-3M) was 11.2 µM (inactive) and the GI50 (SK-MEL-2) was 28.5 µM (inactive).

With `COc1cc(C2c3cccc4cccc(c34)C3CCC(=O)N32)cc(OC)c1O` (configuration not stated) the GI50 (RPMI-8226) was > 50 µM (inactive), the GI50 (MOLT-4) was > 50 µM (inactive) and the GI50 (DU-145) was > 50 µM (inactive). For the same compound, the GI50 (NCI-H23) was > 50 µM (inactive), the GI50 (COLO 205) was > 50 µM (inactive) and the GI50 (OVCAR-8) was > 50 µM (inactive). For the same compound, the GI50 (OVCAR-3) was > 50 µM (inactive), the GI50 (U-251) was > 50 µM (inactive) and the GI50 (SK-OV-3) was > 50 µM (inactive). For the same compound, the GI50 (T47D) was > 50 µM (inactive), the GI50 (OVCAR-4) was > 50 µM (inactive) and the GI50 (HOP-92) was > 50 µM (inactive). The GI50 (UACC-257) was > 50 µM (inactive), the GI50 (M14) was > 50 µM (inactive) and the GI50 (SR) was > 50 µM (inactive). For the same compound, the GI50 (MDA-MB-435) was > 50 µM (inactive), the GI50 (SW-620) was > 50 µM (inactive) and the GI50 (HOP-62) was > 50 µM (inactive). For the same compound, the GI50 (SNB-75) was > 50 µM (inactive), the GI50 (HCT-15) was greater than 50 µM and the GI50 (SF-295) was > 50 µM (inactive). For the same compound, the GI50 (UO-31) was > 50 µM (inactive), the GI50 (BT-549) was > 50 µM (inactive) and the GI50 (NCI-H226) was > 50 µM (inactive). For the same compound, the GI50 (SF-539) was > 50 µM (inactive), the GI50 (ACHN) was > 50 µM (inactive) and the GI50 (IGROV-1) was > 50 µM (inactive). The GI50 (KM12) was > 50 µM (inactive), the GI50 (MDA-N) was > 50 µM (inactive) and the GI50 (SK-MEL-28) was > 50 µM (inactive). For the same compound, the GI50 (NCI-H460) was > 50 µM (inactive), the GI50 (MCF7) was > 50 µM (inactive) and the GI50 (CCRF-CEM) was > 50 µM (inactive). For the same compound, the GI50 (SNB-19) was > 50 µM (inactive), the GI50 (NCI/ADR-RES) was > 50 µM (inactive) and the GI50 (EKVX) was > 50 µM (inactive). The GI50 (HL-60) was > 50 µM (inactive), the GI50 (RXF 393) was > 50 µM (inactive) and the GI50 (K562) was > 50 µM (inactive). For the same compound, the GI50 (UACC-62) was > 50 µM (inactive), the GI50 (786-0) was > 50 µM (inactive) and the GI50 (A549) was 42.7 µM (inactive). For the same compound, the GI50 (SN12C) was > 50 µM (inactive), the GI50 (HCT-116) was > 50 µM (inactive) and the GI50 (PC-3) was > 50 µM (inactive). The GI50 (A498) was > 50 µM (inactive), the GI50 (OVCAR-5) was > 50 µM (inactive) and the GI50 (SK-MEL-2) was > 50 µM (inactive). For the same compound, the GI50 (HT-29) was > 50 µM (inactive).

With `N#Cc1c(NC(=S)Nc2ccc(Cl)cc2)sc2c1CCCC2` the GI50 (RPMI-8226) was 24.2 µM (inactive), the GI50 (MOLT-4) was 16.6 µM (inactive) and the GI50 (DU-145) was > 100 µM (inactive). For the same compound, the GI50 (NCI-H23) was > 100 µM (inactive), the GI50 (COLO 205) was > 100 µM (inactive) and the GI50 (OVCAR-8) was 14.8 µM (inactive). The GI50 (OVCAR-3) was > 100 µM (inactive), the GI50 (CAKI-1) was > 100 µM (inactive) and the GI50 (U-251) was > 100 µM (inactive). The GI50 (T47D) was > 100 µM (inactive), the GI50 (SF-268) was > 100 µM (inactive) and the GI50 (OVCAR-4) was 5.16 µM (inactive). For the same compound, the GI50 (TK-10) was > 100 µM (inactive), the GI50 (UACC-257) was > 100 µM (inactive) and the GI50 (SR) was 25.1 µM (inactive). For the same compound, the GI50 (MDA-MB-435) was > 100 µM (inactive), the GI50 (SW-620) was > 100 µM (inactive) and the GI50 (SNB-75) was > 100 µM (inactive). For the same compound, the GI50 (HCT-15) was greater than 100 µM, the GI50 (SF-295) was > 100 µM (inactive) and the GI50 (UO-31) was > 100 µM (inactive). The GI50 (BT-549) was > 100 µM (inactive), the GI50 (NCI-H226) was > 100 µM (inactive) and the GI50 (ACHN) was > 100 µM (inactive). The GI50 (IGROV-1) was > 100 µM (inactive), the GI50 (KM12) was > 100 µM (inactive) and the GI50 (NCI-H522) was 25.8 µM (inactive). For the same compound, the GI50 (MDA-N) was > 100 µM (inactive), the GI50 (HCC 2998) was 64.1 µM (inactive) and the GI50 (SK-MEL-28) was > 100 µM (inactive). The GI50 (LOX IMVI) was > 100 µM (inactive), the GI50 (MCF7) was > 100 µM (inactive) and the GI50 (SNB-19) was > 100 µM (inactive). For the same compound, the GI50 (MDA-MB-231) was 3.54 µM (inactive), the GI50 (NCI/ADR-RES) was 65.3 µM (inactive) and the GI50 (EKVX) was 3.83 µM (inactive). The GI50 (HL-60) was 34.8 µM (inactive), the GI50 (RXF 393) was > 100 µM (inactive) and the GI50 (K562) was 29.4 µM (inactive). The GI50 (SK-MEL-5) was > 100 µM (inactive), the GI50 (UACC-62) was > 100 µM (inactive) and the GI50 (SN12C) was 3.37 µM (inactive). For the same compound, the GI50 (HCT-116) was > 100 µM (inactive), the GI50 (PC-3) was > 100 µM (inactive) and the GI50 (A498) was > 100 µM (inactive). The GI50 (OVCAR-5) was > 100 µM (inactive), the GI50 (Malme-3M) was 41.2 µM (inactive) and the GI50 (SK-MEL-2) was > 100 µM (inactive). For the same compound, the GI50 (HT-29) was > 100 µM (inactive).
